Source: ChEMBL document CHEMBL1151281, “Botcinins A, B, C, and D, metabolites produced by Botrytis cinerea, and their antifungal activity against Magnaporthe grisea, a pathogen of rice blast disease” (2005)
≈ marks a conversion by molar mass, not a printed value. Calls of active or inactive are those of the source. No cut-off for these calls is given here.

tested on: Pyricularia grisea; assay: Antifungal activity against Magnaporthe grisea IFO 30733 after 3 days; type: functional; conditions: IFO 30733, 72 h

Row | SMILES | MIC [µM]
1 | CCCC[C@H](O)/C=C/C(=O)O[C@@H]1[C@@H](C)[C@@H]2OC(=O)[C@H](C)[C@H](OC(C)=O)[C@@]2(C)O[C@H]1C [BOTCININ A] | 100 (≈ 42.7 µg/mL)
2 | CCCC[C@H](O)/C=C/C(=O)O[C@@H]1[C@@H](C)[C@@H]2OC(=O)C(C)=C[C@@]2(C)O[C@H]1C [BOTCININ D] | 12.5 (≈ 4.58 µg/mL)
3 | CCCCCC[C@H](O)/C=C/C(=O)O[C@@H]1[C@@H](C)[C@@H]2OC(=O)[C@H](C)[C@H](OC(C)=O)[C@@]2(C)O[C@H]1C [BOTCININ B] | 12.5 (≈ 5.68 µg/mL)
4 | CCCCCC[C@H](O)/C=C/C(=O)O[C@@H]1[C@@H](C)[C@@H]2OC(=O)[C@@H](C)[C@H](OC(C)=O)[C@@]2(C)O[C@H]1C [BOTCININ C] | 100 (≈ 45.5 µg/mL)
5 | CCCC[C@H](O)CCC(=O)O[C@@H]1[C@@H](C)[C@@H]2OC(=O)[C@H](C)[C@H](OC(C)=O)[C@@]2(C)O[C@H]1C | 100 (≈ 42.9 µg/mL)

tested on: Pyricularia grisea; assay: Antifungal activity against Magnaporthe grisea IFO 30733 at 800 uM after 3 days; type: functional, organism-based; conditions: not given

Row | SMILES | Activity
6 | CC(=O)O[C@H]1[C@@H](C)C(=O)O[C@H]2[C@H](C)[C@@H](O)[C@H](C)O[C@@]21C | inactive
